From patent publication US11311609B2, “Regulating chimeric antigen receptors” (DANA-FARBER CANCER INSTITUTE, INC., priority 2017, dated 2022)

Assays:
CD19-CAR-dTAG = target: T1, CD19-CAR-dTAG (Homo sapiens, UniProt P62942+Q96SW2, F37V/H95N/M50V/V99I); assay: Immunoblot of CD19-CAR-dTAG degradation in Jurkat T-cells; format: cell-based
T1 construct: HA; expressed in transfected cells; host or cells: Jurkat T-cells, lentiviral transduction, blasticidin selection
Procedure: FIG. 14A and FIG. 14B are immunoblots of cells treated with heterobifunctional compounds described in the present invention.
FIG. 15A and FIG. 15B are immunoblots of cells treated with bi-functional molecules described in the present invention.
FIG. 16 is an immunoblot of cells treated with heterobifunctional compounds described in the present invention.
At 4 and 12 hours, the dFKBP7 was washed out of the Jurkat cells. At each indicated timepoint, Jurkat cells were harvest to monitor CD19-CAR-dTAG expression levels via immunoblot analysis. FIG. 17B is the resulting immunoblot from the experimental design in FIG. 17A.
Jurkat T-cells were transduced with lentivirus expressing CD19-CAR-dTAG. Cells were selected with blasticidin and expanded.
Jurkat T-cells were engineered to express CD19-CAR-dTAG. Cells were treated with the indicated dose of dFKBP7 or dFKBP13 for 4 hours before lysates were prepared for western immunoblot analysis.
Jurkat T-cells were engineered to express CD19-CAR-dTAG. Cells were treated with 250 nM dFKBP7 or dFKBP13 for the indicated time before lysates were prepared for immunoblot analysis.
At 4 and 12 hours, the dFKBP7 was washed out of the Jurkat cells. At each indicated timepoint, Jurkat cells were harvest to monitor CD19-CAR-dTAG expression levels via immunoblot analysis.

[1] = test system: proteins fused to mutant FKBP* with an HA tag; assay: Immunoblot of dTAG fusion proteins in MV4;11 leukemia cells; format: cell-based; conditions: indicated concentrations, 16 hours
Procedure: FIG. 18A and FIG. 18B are immunoblots of cells treated with heterobifunctional compounds described in the present invention. Immunoblots of MV4; 11 leukemia cells expressing indicated proteins fused to mutant FKBP* with an HA tag. Cells were treated for 16 hours with indicated concentrations of FKBP* selective heterobifunctional compounds, dFKBP7 or dFKBP13 and abundance of fusion proteins measured by western immunoblot analysis. Additional experimental details are given in Example 15.
To test the general utility of the dTAG technology across several protein types, the indicated proteins fused to the dTAG in MV4; 11 leukemia cells were expressed. Upon treatment with the indicated dFKBP bifunctional molecules (dFKBP7 and dFKBP13), targeted protein degradation was observed as measured by western blot.

T1 sequence (P62942 with tags, fused parts or gaps F37V/M50V/H95N/V99I limits assumed): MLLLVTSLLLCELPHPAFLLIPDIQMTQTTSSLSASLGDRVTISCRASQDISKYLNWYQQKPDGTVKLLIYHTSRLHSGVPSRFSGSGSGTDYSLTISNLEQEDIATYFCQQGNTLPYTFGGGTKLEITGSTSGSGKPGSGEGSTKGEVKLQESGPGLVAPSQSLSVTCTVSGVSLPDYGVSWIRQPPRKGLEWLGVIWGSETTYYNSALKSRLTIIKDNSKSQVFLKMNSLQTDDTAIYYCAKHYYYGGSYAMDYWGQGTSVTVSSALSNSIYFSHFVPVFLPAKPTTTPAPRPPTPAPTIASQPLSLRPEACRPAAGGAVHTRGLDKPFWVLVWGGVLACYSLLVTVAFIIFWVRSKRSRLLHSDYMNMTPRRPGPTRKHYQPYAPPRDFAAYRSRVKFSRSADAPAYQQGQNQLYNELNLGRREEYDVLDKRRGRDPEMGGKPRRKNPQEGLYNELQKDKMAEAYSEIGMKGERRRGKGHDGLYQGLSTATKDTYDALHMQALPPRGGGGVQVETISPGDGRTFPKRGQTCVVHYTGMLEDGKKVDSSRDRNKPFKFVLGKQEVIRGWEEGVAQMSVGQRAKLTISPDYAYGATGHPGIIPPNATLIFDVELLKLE
T1 sequence (Q96SW2 whole entry): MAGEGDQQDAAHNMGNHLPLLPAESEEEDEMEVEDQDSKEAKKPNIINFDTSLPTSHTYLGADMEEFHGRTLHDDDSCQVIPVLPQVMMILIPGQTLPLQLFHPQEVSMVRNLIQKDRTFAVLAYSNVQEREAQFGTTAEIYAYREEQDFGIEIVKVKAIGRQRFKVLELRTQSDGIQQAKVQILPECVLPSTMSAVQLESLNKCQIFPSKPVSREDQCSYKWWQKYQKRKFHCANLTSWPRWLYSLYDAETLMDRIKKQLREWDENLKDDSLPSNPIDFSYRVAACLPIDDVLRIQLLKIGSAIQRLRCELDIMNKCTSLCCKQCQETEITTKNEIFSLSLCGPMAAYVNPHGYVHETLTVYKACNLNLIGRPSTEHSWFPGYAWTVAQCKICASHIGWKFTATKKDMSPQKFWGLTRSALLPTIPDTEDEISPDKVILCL
T1 sequence (Q16531 whole entry partner): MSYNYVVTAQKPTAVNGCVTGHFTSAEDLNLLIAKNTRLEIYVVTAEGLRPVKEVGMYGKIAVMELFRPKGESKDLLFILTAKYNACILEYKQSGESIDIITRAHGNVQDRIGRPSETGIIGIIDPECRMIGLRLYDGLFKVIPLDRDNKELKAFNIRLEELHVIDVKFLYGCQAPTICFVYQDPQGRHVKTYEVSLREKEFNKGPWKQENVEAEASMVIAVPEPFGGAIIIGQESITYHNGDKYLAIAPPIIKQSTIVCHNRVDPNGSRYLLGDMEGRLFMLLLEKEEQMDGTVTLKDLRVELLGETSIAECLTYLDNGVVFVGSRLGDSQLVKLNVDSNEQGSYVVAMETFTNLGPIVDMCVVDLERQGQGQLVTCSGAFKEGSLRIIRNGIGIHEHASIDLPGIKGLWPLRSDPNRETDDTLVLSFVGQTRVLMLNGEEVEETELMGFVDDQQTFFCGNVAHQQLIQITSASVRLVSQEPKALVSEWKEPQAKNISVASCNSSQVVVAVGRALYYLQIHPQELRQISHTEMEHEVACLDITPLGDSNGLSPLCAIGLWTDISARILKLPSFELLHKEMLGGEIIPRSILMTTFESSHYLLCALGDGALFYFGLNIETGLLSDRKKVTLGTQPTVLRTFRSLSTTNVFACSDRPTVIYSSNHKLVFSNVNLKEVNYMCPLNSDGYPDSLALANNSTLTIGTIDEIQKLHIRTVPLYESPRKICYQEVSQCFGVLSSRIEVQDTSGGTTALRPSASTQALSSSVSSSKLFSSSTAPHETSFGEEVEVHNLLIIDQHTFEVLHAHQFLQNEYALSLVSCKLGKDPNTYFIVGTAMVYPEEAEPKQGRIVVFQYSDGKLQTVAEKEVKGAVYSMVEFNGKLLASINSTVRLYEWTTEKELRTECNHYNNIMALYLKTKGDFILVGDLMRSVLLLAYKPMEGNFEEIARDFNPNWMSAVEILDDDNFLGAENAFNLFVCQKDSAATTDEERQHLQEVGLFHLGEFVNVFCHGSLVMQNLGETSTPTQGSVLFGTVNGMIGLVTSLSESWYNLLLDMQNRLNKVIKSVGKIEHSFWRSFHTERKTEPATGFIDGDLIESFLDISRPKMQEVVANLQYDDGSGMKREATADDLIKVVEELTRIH

For `CC[C@H](C(=O)N1CCCC[C@H]1C(=O)O[C@H](CCc1ccc(OC)c(OC)c1)c1cccc(OCC(=O)NCCCOCCOCCOCCCNC(=O)COc2cccc3c2C(=O)N(C2CCC(=O)NC2=O)C3=O)c1)c1cc(OC)c(OC)c(OC)c1` (some centres unmarked) [dFKBP7], the “Re-expression of CD19-CAR-dTAG protein after washout” value (CD19-CAR-dTAG; Jurkat T-cells, 250 nM for 4 hours, then washouts) was “recovered”, the “Degradation of CD19-CAR-dTAG, time dependence” value (CD19-CAR-dTAG; Jurkat T-cells, 250 nM, indicated time) was “time-dependent degradation of CD19-CAR-dTAG” and the “Degradation of CD19-CAR-dTAG, dose dependence” value (CD19-CAR-dTAG; Jurkat T-cells, indicated dose, 4 hours) was “dose-dependent degradation of CD19-CAR-dTAG”. For the same compound, the “Rheostat chemical control of CD19-CAR-dTAG expression” value (CD19-CAR-dTAG; Jurkat cells, 250 nM at 0 and 8 hours, washed out at 4 and 12 hours) was “exquisite chemical control of CD19-CAR-dTAG protein levels allowing for modulation within hours” and the “Degradation of proteins fused to dTAG” value [1] was “degradation was observed with nanomolar concentrations”.
